Measurements from patent publication US20230114728A1 (Venatorx Pharmaceuticals, Inc., priority 2019, published 2023).
Values after ≈ are worked out from the molar mass of the structure shown. Where two headings read alike, the source gives them in different places.

Experiments:
Assay type in all cases: cell-based
[1] = test system: N. gonorrhoeae ATCC 49226; assay: Liquid broth MIC in Fastidious broth; details: Neisseria gonorrhoeae, ATCC49226, Fastidious broth
Procedure, shortened: (§1)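 Colonies were swabbed from chocolate agar after 24 h growth and standardised by optical density at 600 nm. Compounds were serially diluted twofold in Fastidious broth, and bacteria added to give 5×10^5 CFU/mL. After about 24 h at 36 °C in 5% CO2, the lowest concentration allowing under 10% growth was taken as MIC.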

N. gonorrhoeae FA1090 = assay: Liquid broth MIC in Fastidious broth; details: Neisseria gonorrhoeae, Fastidious broth
Procedure, shortened: as §1

N. gonorrhoeae H041 = assay: Liquid broth MIC in Fastidious broth; details: Neisseria gonorrhoeae
Procedure, shortened: (§2)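 Mosaic PBP2 producers; colonies from 24 h chocolate agar, saline suspension, OD600. Fastidious broth, 2-fold dilutions, 5×10^5 CFU/mL. ~24 h, 36 °C, 5% CO2; visual MIC, <10% growth cutoff.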

N. gonorrhoeae WHO G = assay: Liquid broth MIC in Fastidious broth; details: Neisseria gonorrhoeae, Fastidious broth
Procedure, shortened: as §1

N. gonorrhoeae WHO K = assay: Liquid broth MIC in Fastidious broth; details: Neisseria gonorrhoeae
Procedure, shortened: as §2

N. gonorrhoeae WHO L = assay: Liquid broth MIC in Fastidious broth; details: Neisseria gonorrhoeae, Fastidious broth
Procedure, shortened: as §1

N. gonorrhoeae WHO Q = assay: Liquid broth MIC in Fastidious broth; details: Neisseria gonorrhoeae
Procedure, shortened: as §2

N. gonorrhoeae WHO Z = assay: Liquid broth MIC in Fastidious broth; details: Neisseria gonorrhoeae
Procedure, shortened: as §2

E. coli AG100A = assay: Broth microdilution MIC in CAMHB; details: Escherichia coli, read-out: Minimum Inhibitory Concentration, E. coli AG100A
Procedure, shortened: (§3)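 Lowest compound concentration with no visible growth after 16-20 h at 37 °C defines MIC. Plates of 2-fold serial dilutions in cation-adjusted Mueller Hinton broth received 2-8×10^5 CFU/mL of exponentially grown cells, per CLSI methods; panel spans reference, hyper-permeable and efflux-pump-deleted strains.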

E. coli D22 = assay: Broth microdilution MIC in CAMHB; details: Escherichia coli; E. coli D22 (hyper-permeable); MHB; read-out: Minimum Inhibitory Concentration, E. coli D22
Procedure, shortened: as §3

[2] = test system: K. pneumoniae 848844 producing SHV-11 and KPC-2; assay: Broth microdilution MIC in CAMHB; details: Klebsiella pneumoniae, read-out: Minimum Inhibitory Concentration, K. pneumoniae 848844
Procedure, shortened: as §3

[3] = test system: K. pneumoniae SI-117 producing VIM-1; assay: Broth microdilution MIC in CAMHB; details: Klebsiella pneumoniae, read-out: Minimum Inhibitory Concentration, K. pneumoniae SI-117
Procedure, shortened: as §3

[4] = test system: P. aeruginosa (ΔmexAB-oprM); assay: Broth microdilution MIC in CAMHB; details: Pseudomonas aeruginosa, read-out: Minimum Inhibitory Concentration, P. aeruginosa ΔmexAB-OprM
Procedure, shortened: as §3

[5] = N. gonorrhoeae ATCC 49226, read-out: Minimum Inhibitory Concentration, ATCC 49226
[6] = N. gonorrhoeae FA1090, read-out: Minimum Inhibitory Concentration, FA1090
[7] = H041, read-out: Minimum Inhibitory Concentration, H041
[8] = N. gonorrhoeae WHO G, read-out: Minimum Inhibitory Concentration, WHO G
[9] = read-out: Minimum Inhibitory Concentration, WHO K
[10] = N. gonorrhoeae WHO L, read-out: Minimum Inhibitory Concentration, WHO L
[11] = read-out: Minimum Inhibitory Concentration, WHO Q
[12] = read-out: Minimum Inhibitory Concentration, WHO Z
[13] = N. gonorrhoeae strain ATCC 49226, read-out: Minimum Inhibitory Concentration, N. gonorrhoeae ATCC 49226
[14] = N. gonorrhoeae strain FA1090, read-out: Minimum Inhibitory Concentration, N. gonorrhoeae FA1090
[15] = H041, read-out: Minimum Inhibitory Concentration, N. gonorrhoeae H041
[16] = N. gonorrhoeae strain WHO G, read-out: Minimum Inhibitory Concentration, N. gonorrhoeae WHO G
[17] = read-out: Minimum Inhibitory Concentration, N. gonorrhoeae WHO K
[18] = N. gonorrhoeae strain WHO L, read-out: Minimum Inhibitory Concentration, N. gonorrhoeae WHO L
[19] = read-out: Minimum Inhibitory Concentration, N. gonorrhoeae WHO Q
[20] = read-out: Minimum Inhibitory Concentration, N. gonorrhoeae WHO Z

Compound	MIC (E. coli AG100A) [mg/L]	MIC (E. coli D22) [mg/L]	MIC [2] [mg/L]	MIC [3] [mg/L]	MIC [1, 13] [mg/L]	MIC (N. gonorrhoeae FA1090; [14]) [mg/L]	MIC (N. gonorrhoeae H041; [15]) [mg/L]	MIC (N. gonorrhoeae WHO G; [16]) [mg/L]	MIC (N. gonorrhoeae WHO K; [17]) [mg/L]	MIC (N. gonorrhoeae WHO L; [18]) [mg/L]	also measured
CCN1CCN(C(=O)N[C@@H](C(=O)N[C@H]2Cc3ccc(F)c(C(=O)O)c3OB2O)c2c(Cl)cc(O)c(O)c2F)C(=O)C1=O (single isomer, unassigned) [Example 207]											MIC [1, 5]: 16 to 32 mg/L (≈ 26.2 to 52.4 µM); MIC (N. gonorrhoeae FA1090; [6]): 4 to 8 mg/L (≈ 6.55 to 13.1 µM); MIC (N. gonorrhoeae H041; [7]): > 64 mg/L; MIC (N. gonorrhoeae WHO G; [8]): 16 to 32 mg/L (≈ 26.2 to 52.4 µM); MIC (N. gonorrhoeae WHO K; [9]): > 64 mg/L; MIC (N. gonorrhoeae WHO L; [10]): > 64 mg/L; MIC (N. gonorrhoeae WHO Q; [11]): > 64 mg/L; MIC (N. gonorrhoeae WHO Z; [12]): 16 to 32 mg/L (≈ 26.2 to 52.4 µM)
O=C(NCCCN1CCN(C(=O)NC(C(=O)N[C@H]2Cc3cccc(C(=O)O)c3OB2O)c2ncc(O)cc2F)C(=O)C1=O)c1ccc(O)c(O)c1Cl (stereo partly drawn) [Example 1, (3R)-3-(2-(4-(3-(2-chloro-3,4-dihydroxybenzamido)propyl)-2,3-dioxopiperazine-1-carboxamido)-2-(3-fluoro-5-hydroxypyridin-2-yl)acetamido)-2-hydroxy-3,4-dihydro-2H-benzo[e][1,2]oxaborinine-8-carboxylic acid]	8 to 16 (≈ 10.8 to 21.5 µM)	8 to 16 (≈ 10.8 to 21.5 µM)	32 to 64 (≈ 43.1 to 86.2 µM)	32 to 64 (≈ 43.1 to 86.2 µM)							
CCN1CCN(C(=O)N[C@@H](C(=O)N[C@H]2Cc3cc(Cl)c(F)c(C(=O)O)c3OB2O)c2c(F)cc(O)c(O)c2Cl)C(=O)C1=O [Example 191, (R)-6-chloro-3-((R)-2-(2-chloro-6-fluoro-3,4-dihydroxyphenyl)-2-(4-ethyl-2,3-dioxopiperazine-1-carboxamido)acetamido)-7-fluoro-2-hydroxy-3,4-dihydro-2H-benzo[e][1,2]oxaborinine-8-carboxylic acid]					> 64	16 to 32 (≈ 24.8 to 49.6 µM)	> 64	> 64	> 64	> 64	MIC (N. gonorrhoeae WHO Q; [19]): > 64 mg/L; MIC (N. gonorrhoeae WHO Z; [20]): > 64 mg/L
O=C(NCCCN1CCN(C(=O)NC(C(=O)N[C@H]2Cc3ccc(F)c(C(=O)O)c3OB2O)c2ncc(O)cc2F)C(=O)C1=O)c1ccc(O)c(O)c1Cl (stereo partly drawn) [Example 3, (3R)-3-(2-(4-(3-(2-chloro-3,4-dihydroxybenzamido)propyl)-2,3-dioxopiperazine-1-carboxamido)-2-(3-fluoro-5-hydroxypyridin-2-yl)acetamido)-7-fluoro-2-hydroxy-3,4-dihydro-2H-benzo[e][1,2]oxaborinine-8-carboxylic acid]	32 to 64 (≈ 42.1 to 84.1 µM)	32 to 64 (≈ 42.1 to 84.1 µM)	32 to 64 (≈ 42.1 to 84.1 µM)	> 128							
CCN1CCN(C(=O)NC(C(=O)N[C@H]2Cc3ccc(F)c(C(=O)O)c3OB2O)c2ncc(C(=O)O)cc2F)C(=O)C1=O (stereo partly drawn) [Example 33, 6-(2-(((R)-8-carboxy-7-fluoro-2-hydroxy-3,4-dihydro-2H-benzo[e][1,2]oxaborinin-3-yl)amino)-1-(4-ethyl-2,3-dioxopiperazine-1-carboxamido)-2-oxoethyl)-5-fluoronicotinic acid]	> 128	2 to 4 (≈ 3.39 to 6.79 µM)	> 128	> 128	16 to 32 (≈ 27.2 to 54.3 µM)	4 to 8 (≈ 6.79 to 13.6 µM)	> 64	16 to 32 (≈ 27.2 to 54.3 µM)	> 64	> 64	MIC [4]: 32 to 64 mg/L (≈ 54.3 to 109 µM)
Nc1nc(/C(=N/OC[C@H](NC(=O)c2ccc(O)c(O)c2Cl)C(=O)O)C(=O)N[C@H]2Cc3cccc(C(=O)O)c3OB2O)cs1 [Example 6, (R)-3-((Z)-2-(2-aminothiazol-4-yl)-2-(((S)-2-carboxy-2-(2-chloro-3,4-dihydroxybenzamido)ethoxy)imino)acetamido)-2-hydroxy-3,4-dihydro-2H-benzo[e][1,2]oxaborinine-8-carboxylic acid]					> 64	16 to 32 (≈ 25.2 to 50.5 µM)	> 64	16 to 32 (≈ 25.2 to 50.5 µM)	> 64	> 64	
CCN1CCN(C(=O)N[C@@H](C(=O)N[C@H]2Cc3ccc(F)c(C(=O)O)c3OB2O)c2ccc(O)c(O)c2)C(=O)C1=O [Example 211, (R)-3-((R)-2-(3,4-dihydroxyphenyl)-2-(4-ethyl-2,3-dioxopiperazine-1-carboxamido)acetamido)-7-fluoro-2-hydroxy-3,4-dihydro-2H-benzo[e][1,2]oxaborinine-8-carboxylic acid]											MIC [1, 5]: 16 to 32 mg/L (≈ 28.7 to 57.3 µM); MIC (N. gonorrhoeae FA1090; [6]): 4 to 8 mg/L (≈ 7.16 to 14.3 µM); MIC (N. gonorrhoeae H041; [7]): 16 to 32 mg/L (≈ 28.7 to 57.3 µM); MIC (N. gonorrhoeae WHO G; [8]): 16 to 32 mg/L (≈ 28.7 to 57.3 µM); MIC (N. gonorrhoeae WHO K; [9]): 16 to 32 mg/L (≈ 28.7 to 57.3 µM); MIC (N. gonorrhoeae WHO L; [10]): > 64 mg/L; MIC (N. gonorrhoeae WHO Q; [11]): 16 to 32 mg/L (≈ 28.7 to 57.3 µM); MIC (N. gonorrhoeae WHO Z; [12]): 16 to 32 mg/L (≈ 28.7 to 57.3 µM)
Nc1nc(C(NC(=O)N2CCN(CCNC(=O)c3ccc(O)c(O)c3Cl)C(=O)C2=O)C(=O)N[C@H]2Cc3ccc(F)c(C(=O)O)c3OB2O)c(F)s1 (stereo partly drawn) [Example 4, (3R)-3-(2-(2-amino-5-fluorothiazol-4-yl)-2-(4-(2-(2-chloro-3,4-dihydroxybenzamido)ethyl)-2,3-dioxopiperazine-1-carboxamido)acetamido)-7-fluoro-2-hydroxy-3,4-dihydro-2H-benzo[e][1,2]oxaborinine-8-carboxylic acid]					16 to 32 (≈ 21.3 to 42.6 µM)	4 to 8 (≈ 5.32 to 10.6 µM)	> 64	4 to 8 (≈ 5.32 to 10.6 µM)	> 64	> 64	
NCCCN1CCN(C(=O)N[C@@H](C(=O)N[C@H]2Cc3cc(Cl)c(F)c(C(=O)O)c3OB2O)c2c(F)cc(O)c(O)c2Cl)C(=O)C1=O [Example 190, (R)-3-((R)-2-(4-(3-aminopropyl)-2,3-dioxopiperazine-1-carboxamido)-2-(2-chloro-6-fluoro-3,4-dihydroxyphenyl)acetamido)-6-chloro-7-fluoro-2-hydroxy-3,4-dihydro-2H-benzo[e][1,2]oxaborinine-8-carboxylic acid]					> 64	16 to 32 (≈ 23.7 to 47.5 µM)	> 64	> 64	> 64	> 64	MIC (N. gonorrhoeae WHO Q; [19]): > 64 mg/L; MIC (N. gonorrhoeae WHO Z; [20]): > 64 mg/L
CS(=O)(=O)N1CCN(C(=O)NC(C(=O)N[C@H]2Cc3ccc(F)c(C(=O)O)c3OB2O)c2c(Cl)cc(O)c(O)c2F)C1=O (stereo partly drawn) [Example 208, (3R)-3-(2-(6-chloro-2-fluoro-3,4-dihydroxyphenyl)-2-(3-(methylsulfonyl)-2-oxoimidazolidine-1-carboxamido)acetamido)-7-fluoro-2-hydroxy-3,4-dihydro-2H-benzo[e][1,2]oxaborinine-8-carboxylic acid]											MIC [1, 5]: > 64 mg/L; MIC (N. gonorrhoeae FA1090; [6]): 4 to 8 mg/L (≈ 6.32 to 12.6 µM); MIC (N. gonorrhoeae H041; [7]): > 64 mg/L; MIC (N. gonorrhoeae WHO G; [8]): 16 to 32 mg/L (≈ 25.3 to 50.6 µM); MIC (N. gonorrhoeae WHO K; [9]): > 64 mg/L; MIC (N. gonorrhoeae WHO L; [10]): > 64 mg/L; MIC (N. gonorrhoeae WHO Q; [11]): > 64 mg/L; MIC (N. gonorrhoeae WHO Z; [12]): > 64 mg/L
O=C(NCCN1CCN(C(=O)NC(C(=O)N[C@H]2Cc3ccc(F)c(C(=O)O)c3OB2O)c2ncc(O)cc2F)C(=O)C1=O)c1c(F)cc(O)c(O)c1Cl (stereo partly drawn) [Example 5, (3R)-3-(2-(4-(2-(2-chloro-6-fluoro-3,4-dihydroxybenzamido)ethyl)-2,3-dioxopiperazine-1-carboxamido)-2-(3-fluoro-5-hydroxypyridin-2-yl)acetamido)-7-fluoro-2-hydroxy-3,4-dihydro-2H-benzo[e][1,2]oxaborinine-8-carboxylic acid]					> 64	4 to 8 (≈ 5.23 to 10.5 µM)	> 64	16 to 32 (≈ 20.9 to 41.8 µM)	> 64	> 64	
C[C@H]1CN(CCNC(=O)c2ccc(O)c(O)c2Cl)C(=O)C(=O)N1C(=O)NC(C(=O)N[C@H]1Cc2cccc(C(=O)O)c2OB1O)c1ncc(O)cc1F (stereo partly drawn) [Example 2, (3R)-3-(2-((S)-4-(2-(2-chloro-3,4-dihydroxybenzamido)ethyl)-6-methyl-2,3-dioxopiperazine-1-carboxamido)-2-(3-fluoro-5-hydroxypyridin-2-yl)acetamido)-2-hydroxy-3,4-dihydro-2H-benzo[e][1,2]oxaborinine-8-carboxylic acid]	0.5 to 1 (≈ 0.673 to 1.35 µM)	2 to 4 (≈ 2.69 to 5.38 µM)	8 to 16 (≈ 10.8 to 21.5 µM)	8 to 16 (≈ 10.8 to 21.5 µM)	> 64	4 to 8 (≈ 5.38 to 10.8 µM)	> 64	> 64	> 64	> 64	
